From patent US7521596B2, “Method for controlling weeds” (Sumitomo Chemical Company, Limited, priority 2004, dated 2009)

Legend:
[1] = tested on: wild-type tobacco line SR-1; assay: Spray test of the present herbicidal compound, wild-type tobacco (negative control); type: in vivo, Nicotinia tabacum; conditions: wild type SR-1, score 0 (died) to 3; for average phytotoxicity score (sensitivity to carfentrazone-ethyl): applied as AIM HERBICIDE dry flowable; for average phytotoxicity score (sensitivity to flufenpyr-ethyl): about 2 weeks after spraying, average of 4 individuals
Method: (§1) Seeds of the homozygote lines selected in Example 4 (seeds of lines #17 and #25 of the recombinant tobacco to which plasmid pBI-NdG6-rSt-1609soy has been introduced, and seeds of the line 1584soy#16 of the recombinant tobacco to which plasmid pBI-NdG6-rSt-1584soy has been introduced) were aseptically seeded on MS agar medium containing 100 mg/L kanamycin. Also, seeds of the wild-type tobacco line SR-1 were aseptically seeded on MS agar medium. After about 2 weeks, germinated seedlings were observed.
(§2) Germinated individuals were transplanted to growing pots containing horicultural soil (Kureha Engei Baido manufactured by Kureha Chemical Industry Co., Ltd.), acclimated to the external environment in a growth chamber, then grown for about 2 weeks at 23° C., 23 hours of day length in a growth chamber. Thus obtained plants were applied to the spray test of the present herbicidal compound, flufenpyr-ethyl.
(§3) Flufenpyr-ethyl was dissolved in Solvesso cocktail mixed Solvesso 200 (manufactured by Valent) and Sorpol 3816 (manufactured Sumitomo Chemical Co., Ltd.) at the ratio of 87.5:10 such that flufenpyr-ethyl was respectively contained 0.89 mg or 1.78 mg in 0.5 mL Solvesso cocktail. The spray liquid of flufenpyr-ethyl was prepared as the aqueous solution containing the Solvesso cocktail of 2.5% concentration in which the compound was dissolved and Agri dex of 1% concentration (manufactured by Valent) as adjuvant.
(§4) Spray of the spray liquid to the plant above described was carried out, by using running automatic spray machine (manufactured by Nambasekkei), such that spray liquid 20 mL was sprayed to the recombinant tobacco seedlings put at 0.9 square meter of the sprayed area in a uniform way. After about 2 weeks, the sensitivity of the applied recombinant tobacco line to flufenpyr-ethyl was compared to the sensitivity of the wild-type tobacco line SR-1 to flufenpyr-ethyl. In the above spray test, 4 individuals of the recombinant tobacco were used with respect to each applied amount of flufenpyr-ethyl. The sensitivity of the recombinant tobacco to flufenpyr-ethyl was decided by scoring it based on the index below, and calculating the average of the score of 4 individuals with respect to each recombinant tobacco line and applied amount for it. The same spray test of wild-type line SR-1 was carried out as a negative control.
(§5) <Scoring Index Based on the Degree of Phytotoxicity as Dying of the Individual and Browning or Whitening of the Leaves or Stems Caused by Compound Spraying>
(§6) As to the homozygote line 1609soy#25 selected in Example 4 from among the recombinant tobacco lines to which a DNA having a nucleotide sequence encoding the amino acid sequence of SEQ ID NO: 1 has been introduced, and the wild-type tobacco line SR-1, their sensitivities to the compound (I), carfentrazone-ethyl and sulfentrazone were investigated according to the method described in Example 5 (evaluation by scoring index based on the degree of phytotoxicity as dying of the individual and browning or whitening of the leaves or stems caused by compound spraying). […]

[2] = tested on: wild-type soybean line (cv. Jack); assay: Spray test of the present herbicidal compound, wild-type soybean (negative control); type: in vivo; conditions: sprayed 21st day after seeding, scored 2 weeks after spraying, score 0 (died) to 3
Method: (§7) Seeds of these lines were seeded and grown in growing pots containing horicultural soil (Kureha Engei Baido manufactured by Kureha Chemical Industry Co. Ltd.) When trifoliate leaves were developed after germination, the seedlings were transplanted to growing pots containing the soil prepared by mixing equal amount of the Kureha Engei Baido and field soil, and then grown in a greenhouse according to the method of Example 17 of WO0304370 to obtain seeds of T2 generation of each line. Among the obtained T2 generations, seeds of T2 generation of the line J18 (seeds of the recombinant soybean) were seeded in growing pots containing horicultural sail (Kureha Engei Baido manufactured by Kureha Chemical Industry Co., Ltd.) and grown. According to the above method described in Example 5, it was sprayed carfentrazone-ethyl to the seedling on the 21st day after seeding, and compared the sensitivity to carfentrazone-ethyl of the recombinant soybean with the sensitivity to carfentrazone-ethyl of wild-type soybean line (cv. Jack) at 2 weeks after spraying. The spray liquid of the above herbicidal compound was prepared as follows.
(§8) The spray liquid was prepared by diluting dry flowable preparation of carfentrazone-ethyl (AIM™ HERBICIDE manufactured by FMC, containing 40% (w/w) of carfentrazone-ethyl) with Agri dex (manufactured by Valent) 1% aqueous solution to be contained 1.79 mg, 3.57 mg or 7.14 mg of carfentrazone-ethyl in the spray liquid.
(§9) The sensitivity of the recombinant soybean to carfentrazone-ethyl was decided by scoring it based on the index below, and calculating the average of the scores with respect to each recombinant soybean line and applied amount for it. The same spray test of the wild-type soybean line (cv. Jack) was carried out as a negative control.
as §5

[3] = tested on: recombinant soybean line J18 (cytochrome P450 of SEQ ID NO: 1 introduced); assay: Spray test of the present herbicidal compound, recombinant soybean line J18; type: in vivo; conditions: for average phytotoxicity score (sensitivity to carfentrazone-ethyl): J18 (T2 generation), sprayed 21st day after seeding, scored 2 weeks after spraying, score 0 (died) to 3
Method: as §7, §8, §9, §5

[4] = tested on: recombinant tobacco line 1609soy#25 (cytochrome P450 of SEQ ID NO: 1 introduced); assay: Spray test of the present herbicidal compound, recombinant tobacco line 1609soy#25; type: in vivo, Nicotinia tabacum; conditions: score 0 (died) to 3; for average phytotoxicity score (sensitivity to carfentrazone-ethyl): applied as AIM HERBICIDE dry flowable; for average phytotoxicity score (sensitivity to flufenpyr-ethyl): about 2 weeks after spraying, average of 4 individuals
Method: as §1, §2, §3, §4, §5, §6

[5] = tested on: recombinant tobacco line 1584soy#16 (cytochrome P450 of SEQ ID NO: 2 introduced); assay: Spray test of the present herbicidal compound, recombinant tobacco line 1584soy#16; type: in vivo, Nicotinia tabacum; conditions: about 2 weeks after spraying, average of 4 individuals, score 0 (died) to 3
Method: as §1, §2
(§10) Flufenpyr-ethyl was dissolved in Solvesso cocktail mixed Solvesso 200 (manufactured by Valent) and Sorpol 3816 (manufactured Sumitomo Chemical Co., Ltd.) at the ratio of 87.5:10 such that flufenpyr-ethyl was respectively contained 0.89 mg or 1.78 mg in 0.5 mL Solvesso cocktail. […]

[6] = tested on: recombinant tobacco line 1609soy#17 (cytochrome P450 of SEQ ID NO: 1 introduced); assay: Spray test of the present herbicidal compound, recombinant tobacco line 1609soy#17; type: in vivo, Nicotinia tabacum; conditions: about 2 weeks after spraying, average of 4 individuals, score 0 (died) to 3
Method: as §1, §2, §10

CCOC(=O)C(Cl)Cc1cc(-n2nc(C)n(C(F)F)c2=O)c(F)cc1Cl (stereo not drawn) [carfentrazone-ethyl]
average phytotoxicity score (sensitivity to carfentrazone-ethyl) ([1]; 0.446 mg/20 mL spray liquid): 1.0 | average phytotoxicity score (sensitivity to carfentrazone-ethyl) ([1]; 0.893 mg/20 mL spray liquid): 0.0 | average phytotoxicity score (sensitivity to carfentrazone-ethyl) ([1]; 4.46 mg/20 mL spray liquid): 0.0 | average phytotoxicity score (sensitivity to carfentrazone-ethyl) ([2]; 1.79 mg/20 mL spray liquid): 1.0 | average phytotoxicity score (sensitivity to carfentrazone-ethyl) ([2]; 3.57 mg/20 mL spray liquid): 0.9 | average phytotoxicity score (sensitivity to carfentrazone-ethyl) ([2]; 7.14 mg/20 mL spray liquid): 0.3 | average phytotoxicity score (sensitivity to carfentrazone-ethyl) ([3]; 1.79 mg/20 mL spray liquid): 1.8 | average phytotoxicity score (sensitivity to carfentrazone-ethyl) ([3]; 3.57 mg/20 mL spray liquid): 1.4 | average phytotoxicity score (sensitivity to carfentrazone-ethyl) ([3]; 7.14 mg/20 mL spray liquid): 0.9 | phytotoxicity / resistance as compared to the wild-type plant cv. Jack ([3]; line J18, 1.79, 3.57 or 7.14 mg in the spray liquid): the phytotoxicity was reduced and remarkable improvement of the resistance was recognized | average phytotoxicity score (sensitivity to carfentrazone-ethyl) ([4]; 0.446 mg/20 mL spray liquid): 2.5 | average phytotoxicity score (sensitivity to carfentrazone-ethyl) ([4]; 0.893 mg/20 mL spray liquid): 1.8 | average phytotoxicity score (sensitivity to carfentrazone-ethyl) ([4]; 4.46 mg/20 mL spray liquid): 1.5

CCOC(=O)COc1cc(-n2ncc(C(F)(F)F)c(C)c2=O)c(F)cc1Cl [flufenpyr-ethyl]
average phytotoxicity score (sensitivity to flufenpyr-ethyl) ([1]; 0.89 mg/20 mL spray liquid): 1.7 | average phytotoxicity score (sensitivity to flufenpyr-ethyl) ([1]; 1.78 mg/20 mL spray liquid): 0.0 | average phytotoxicity score (sensitivity to flufenpyr-ethyl) ([5]; 0.89 mg/20 mL spray liquid): 3.0 | average phytotoxicity score (sensitivity to flufenpyr-ethyl) ([5]; 1.78 mg/20 mL spray liquid): 3.0 | average phytotoxicity score (sensitivity to flufenpyr-ethyl) ([6]; 0.89 mg/20 mL spray liquid): 3.0 | average phytotoxicity score (sensitivity to flufenpyr-ethyl) ([6]; 1.78 mg/20 mL spray liquid): 3.0 | average phytotoxicity score (sensitivity to flufenpyr-ethyl) ([4]; 0.89 mg/20 mL spray liquid): 3.0 | average phytotoxicity score (sensitivity to flufenpyr-ethyl) ([4]; 1.78 mg/20 mL spray liquid): 3.0
